We go through 2 compounds from patent publication US20260325504A1, “Genetically Engineered Human Pituitary Corticotroph Tumor Organoids Exhibit Divergent Responses to Selective Glucocorticoid Receptor Modulators” (Corcept Therapeutics Incorporated, priority 2022, published 2026).

“Also recorded” adds a separate entry of the source.

What all share (format): cell-based, human
In test [1] the test system is iPSC^USP48MV organoids. The experiment in a line: EdU uptake (proliferation) in iPSCUSP48MV organoids. Conditions: compound alone, 500 nM, 48 h. How it is done:
(§1) iPSCs were stained for pituitary specific hormones including luteinizing hormone (LH), follicle-stimulating hormone (FSH), growth hormone (GH), prolactin (PRL), ACTH, cytokeratin 8/18 (CAM5.2), pituitary transcription factor PIT-1 and neuroendocrine marker Synaptophysin (Table 5). Cultures were immunostained for proliferation marker EdU (Click-IT EdU Alexa Fluor 555 Imaging Kit, Thermo Fisher Scientific C10338). Antibody dilutions were determined based on manufacturer guidelines and antibody titration (Table 5). Staining was conducted according to previously published protocols. Briefly, organoids and iPSCs grown in 8-well glass bottom chamber slides were fixed using 3.7% formaldehyde, washed with DPBS, permeabilized with 0.5% Triton X-100 (SIGMA X-100, PBS-T, 20 min at room temperature), washed with 0.01% PBS-T, and blocked with 2% donkey serum (Jackson Immuno Research 017-000-121) for 1 hour at room temperature. After blocking, primary antibodies were added and incubated overnight at 4° C. Slides were washed with 0.01% PBS-T and incubated with secondary antibodies (Table 5) with Hoechst (Thermo Fisher Scientific H1399) for 1 hour at room temperature. Organoids were washed and stored in PBS at 4° C. until microscopic analysis. High content confocal microscopy was performed using the Nikon Ti2-E Inverted Microscope (with a Crest X-Light V2 L-FOV Spinning Disk Confocal) at the University of Arizona Cancer Center, or a ZEISS LSM880 34 channel Laser Scanning Confocal Microscope at University of Arizona Marley Imaging Core. Fluorescence intensity was quantified as the percentage of marker-positive cells versus total cells, using Nikon Elements Software (Version 5.21.05). Proliferation for each iPSC line was quantified as the percentage of EdU-positive cells versus total cells.
(§2) Sonic Hedgehog (SHH) was withdrawn from the organoid growth media 16 hours prior to treatment. The experimental treatment groups included: vehicle (Veh), mifepristone (500 nM, Selleckchem S2606), GANT61 (5 μM, Stemcell Technologies 73692), ketoconazole (Keto, 10 μM, Selleckchem S1353), pasireotide (Pas, 100 nM, Target Mol TP2207-SB001), octreotide (Oct, 100 nM, Selleckchem P1017), mifepristone plus GANT61, mifepristone plus Keto, mifepristone plus Pas, relacorilant (500 nM, Corcept Therapeutics CORT125134), relacorilant plus Pas, relacorilant plus Oct, or dexamethasone (Dexa, 100 nM, SIGMA S4902). In the combination treatments, cultures were pretreated with the GANT61, Keto, Pas or Oct for 2 hours prior to treatment with mifepristone or Rela. […] The IC50 values used for each hPITO line for each drug were determined based on dose responses (FIG. 12). […]

The test system of test [2] is PitNET organoids. Briefly: PitNET organoid proliferation, apoptosis and cell death (summary). Particulars: for tumor cell apoptosis / cell death: PitNET organoids. How it is done:
as §1, with “Slides were washed with 0.01% PBS-T and incubated with secondary antibodies (Table 5) with Hoechst (Thermo Fisher Scientific H1399) for 1 hour at room temperature. Organoids were washed and stored in PBS at 4° C. until microscopic analysis. High content confocal microscopy was performed using the Nikon Ti2-E Inverted Microscope (with a Crest X-Light V2 L-FOV Spinning Disk Confocal) at the University of Arizona Cancer Center, or a ZEISS LSM880 34 channel Laser Scanning Confocal Microscope at University of Arizona Marley Imaging Core.” left out
Nuclear Morphometric Analysis (NMA) using treated organoids was performed based on a published protocol that measures cell viability based on the changes in nuclear morphology of the cells using nuclear stain Hoechst or DAPI [31]. Images of organoid nuclei were analyzed using the ImageJ Nuclear Irregularity Index (NII) plugin for key parameters that included cell area, radius ratio, area box, aspect, and roundness. Using the published spreadsheet template, the NII of each cell was calculated with the following formula: NII=Aspect−Area Box+Radius Ratio+Roundness. […] The percentage of cells in each NII classification category were calculated and plotted as a histogram using GraphPad Prism. […]

Test [3] has as its system iPSC^USP48MV organoids. The experiment in a line: Nuclear morphometric analysis (nuclear irregularity index), iPSCUSP48MV organoids. Particulars: 500 nM, 48 h. How it is done:
Nuclear Morphometric Analysis (NMA) using treated organoids was performed based on a published protocol that measures cell viability based on the changes in nuclear morphology of the cells using nuclear stain Hoechst or DAPI [31]. Images of organoid nuclei were analyzed using the ImageJ Nuclear Irregularity Index (NII) plugin for key parameters that included cell area, radius ratio, area box, aspect, and roundness. Using the published spreadsheet template, the NII of each cell was calculated with the following formula: NII=Aspect−Area Box+Radius Ratio+Roundness. The area vs NII of vehicle-treated cells were plotted as a scatter plot using the template and considered as the normal cell nuclei. […] The percentage of cells in each NII classification category were calculated and plotted as a histogram using GraphPad Prism.
Sonic Hedgehog (SHH) was withdrawn from the organoid growth media 16 hours prior to treatment. […] The IC50 values used for each hPITO line for each drug were determined based on dose responses (FIG. 12). […]

Test [4] concerns iPSC^ctrl organoids. Briefly: EdU uptake (proliferation) in iPSCctrl organoids. Conditions: compound alone, 500 nM, 48 h. How it is done:
as §1, §2

Turning to `CC#C[C@]1(O)CC[C@H]2[C@@H]3CCC4=CC(=O)CCC4=C3[C@@H](c3ccc(N(C)C)cc3)C[C@@]21C` [mifepristone, 11β-(4-dimethylaminophenyl)-17ß-hydroxy-17α-(1-propynyl)-estra-4,9-dien-3-one], the “proliferation (EdU uptake)” value in test [1] and in test [4] was “significant increase in cell proliferation” each time. Also, the PitNET organoid proliferation result in test [2] (compared to relacorilant) was “preferentially induced the expression of SSTR2, ACTH secretion and PitNET organoid proliferation”. In addition, in test [3], the “apoptotic cells by nuclear irregularity index (NII)” value is given as “not observed; also recorded: induces apoptosis in neither the tumor organoid iPSC^USP48MV nor the control organoid iPSC^ctrl”.
Take `Cn1cc(S(=O)(=O)N2CCC3=Cc4c(cnn4-c4ccc(F)cc4)C[C@]3(C(=O)c3cc(C(F)(F)F)ccn3)C2)cn1` [relacorilant, (R)-(1-(4-fluorophenyl)-6-((1-methyl-1H-pyrazol-4-yl)sulfonyl)-4,4a,5,6,7,8-hexahydro-1H-pyrazolo[3,4-g]isoquinolin-4a-yl) (4-(trifluoromethyl)pyridin-2-yl) methanone]: the “proliferation (EdU uptake)” value in test [1] and in test [4] was “did not induce organoid proliferation” in each case. The “tumor cell apoptosis / cell death” value in test [2] is “induced SSTR5 expression and PitNET organoid apoptosis; also recorded: induced PitNET cell death”; in test [2] (listed as Relacorilant) it was “induces SSTR5 and tumor cell apoptosis”. Besides, the “apoptotic cells by nuclear irregularity index (NII)” value in test [3] is listed as “significant expression pattern of nuclear morphology consistent with increased apoptotic cells; also recorded: consistent with increased apoptosis cells”.
